Values joined by “and” are separate entries in the source; they are usually repeats but may differ in a detail not shown here. Equal entries are not always repeated. Where two headings read alike, the source gives them in different places.
Legend:
[1] = Safety and tolerability assessments in healthy volunteers; format: in vivo, human
Description: All adverse events were recorded with an evaluation of their severity and imputability to the study drug. Each volunteer received a full medical examination at screening and at the end of the study. Visual analogue scales (VAS) on paper support recorded the intensity of 12 potential symptoms (abdominal pain, appetite, nausea, taste of sparkling water, fatigue, headache, dyspnea, dizziness, paresthesia, difficulty in concentration, irritability, and depression) predrug (0 hour) at 0.5, 1, 2, 4, 6, 8, 10, and 24 hours postdose. Vital signs (supine blood pressure, heart rate, body temperature, and respiratory frequency) were measured predose and at 1, 2, 4, 6, 8, 10, and 24 hours postdose. Laboratory parameters, drug screen, and urinalysis were performed at screening and at study end.

[2] = Population PK compartmental analysis (two-compartment model with saturable ligand to receptor binding); format: in vivo, human
Description: A population PK analysis was also performed using a nonlinear mixed‐effect modeling approach (NONMEM version 7.4, ICON Development Solutions, Hanover MD, USA). […] The model was expressed in terms of differential equations and first‐order rate constants of absorption (ka), elimination (ke), association with (kon) and dissociation from (koff) receptors, maximal binding capacity (Btot), apparent central volume of distribution (Vc/F), and erythrocytes’ volume of distribution (Very). Note that Very actually encompasses the volume of all types of cells containing receptors, assumed to tally with the sampled erythrocytes. Plasma protein binding was assumed constant over the whole range of observed concentrations. Renal extraction fraction (Qren) was added to characterize urine excretion with an additional compartment for urine data. Values of kon and koff characterized in vitro at different temperatures were used as initial estimates and the value of kon to 2018 µM^−1 h^−1 at 37°C fixed in the in vivo model. F was not evaluated, making the model estimate apparent values for Vc/F and CL/F. The first‐order elimination rate constant from the central compartment was calculated as ke = (CL/F)/(Vc/F). The first value below the LLOQ was equaled to LLOQ/2 and subsequent nonquantifiable values were discarded (M6 method).12 Details concerning differential equations and model building steps and adjustment are available in Supplemental material.
Figure 1 Compartmental model accounting for nonlinearity of distribution. Aa, amount of sultiame at the absorption site; Ap, amount of sultiame in plasma and central compartment; Vc, central volume of distribution; Aery, amount of sultiame in the cells, assumed to be bound to receptors; Very, cellular volume of distribution; ka, absorption rate constant; ke, elimination rate constant; kon, constant of association onto receptors binding sites; koff, constant of dissociation from the binding site; Bbound, amount of occupied receptors, assumed equal to Aery; Bfree, amount of free binding sites; Btot, sultiame maximal binding capacity (mg); Qren, renal fraction of the elimination rate; Foral, oral bioavailability, assumed equal to 1
A stepwise procedure was used to identify the model that best fitted the data, comparing two‐, three‐, and four‐compartmental models (peripheral or separate intracellular compartments for free and bound sultiame), and other nonlinear models (Bmax sigmoid model). Exponential errors were used for the description of between‐subject variability (BSV) of PK parameters. Proportional, additive, and mixed error models were compared to describe the residual variability. The stability and internal validity of the final model were assessed by means of standard procedures, detailed in Supplemental material. Covariates were not analyzed due to the limited number of subjects included.
Our population PK analysis used a non-linear mixed effect two-compartment model with first-order absorption incorporating a saturable ligand to receptor binding. We fitted it to our data with the NONMEM software (version 7.4, ICON Development Solutions, Hanover MD, USA), using the ADVAN13 subroutine.
Notice that Aery simultaneously expresses the amount of binding sites occupied by sultiame (Bbound). Thus, the amount of free binding sites corresponds to Bfree = (Btot – Aery), and the model only needs the parameter Btot to characterize the size of the saturable compartment associated to receptor binding (in mg of sultiame). The values of kon and koff characterized in vitro at 37°C were used in the in vivo model as initial estimates, and the kon was fixed to 2018 µM^-1· h^-1.
The model was fitted to the data using first order conditional estimation (FOCE) to obtain values for the eight model parameters listed above. […]

erythrocytes = assay: In vitro spiking experiment: sultiame exchanges between plasma and erythrocytes; format: in vitro ADME, human
Description: A spiking experiment was performed to better characterize sultiame exchanges between plasma and erythrocytes. The influx into cells was investigated through spiking fresh human whole blood on EDTA at different target concentrations (1, 5, 10, 20, 40, and 80 mg/L) and different temperatures (4, 21, and 37°C), followed by sampling at 0, 2, 4, 6, 8, 10, 15, 30, 60, 120, and 180 min. The efflux was investigated through incubating whole blood for 1 h at 2 concentrations (10 and 40 mg/L) at 37°C, centrifugating and briefly washing the erythrocytes with NaCl 0.9%, and letting them equilibrate with fresh plasma while drawing samples at 0, 2, 4, 6, 8, 10, 15, 30, 60, 120, 180 minutes, and 24 hours.
In addition, competition studies were performed with two other antiepileptic agents known for their affinity for CA (zonisamide and topiramate), added at equimolar concentration to 20 mg/L of sultiame. Similar ranges of inhibition constants for CA II were reported in the literature for these three substances.13 Samples (1 mL) were drawn before and at 2, 4, 6, 8, 10, 15, 20, 30, 45, 60, and 120 min after addition of the competitor. Sultiame, zonisamide, and topiramate concentrations were then analyzed. All samples were centrifuged at 18 620 g for 1 minutes at 4°C. Plasma, erythrocyte, and urine fractions were stored separately at − 80°C prior to analysis for a maximum of 9 months. For analysis, plasma and hemolyzed erythrocytes samples were subjected to protein precipitation with MeOH containing the internal‐standard sultiame D4 and quantified with the previously described HPLC‐MS/MS method, using matrix‐matched calibration and quality controls. The sultiame concentrations determined in erythrocytes were corrected for the 10% interstitial plasma remnant in the erythrocyte fraction after centrifugation.14

[3] = set-up: method as in earlier work; details: manufacturer's information ref 8; cited from earlier work
[4] = single oral doses 50, 100, 200 mg
[5] = population estimate of final model
[6] = 37 °C, deduced using Arrhenius' law

NS(=O)(=O)c1ccc(N2CCCCS2(=O)=O)cc1 [Sultiame]
transient facial and limb paresthesia ([1]; after intake of the highest dose of 200 mg, four subjects): reported by three subjects | gastrointestinal and central nervous system tolerance using VAS [1, 4]: limited impact | symptom most frequently reported [1, 4]: Fatigue | severe or serious adverse events ([1]; single oral doses 50, 100, 200 mg, four subjects): No severe or serious adverse events were reported | Btot ([2]; bootstrap evaluation, median): 111 mg | QRen ([2]; bootstrap evaluation, median): 28.8% | Vc ([2]; bootstrap evaluation, median): 64.8 L | Very ([2]; bootstrap evaluation, median): 3.27 L | ka ([2]; bootstrap evaluation, median): 1.88 h⁻¹ | koff ([2]; bootstrap evaluation, median): 2.244 s⁻¹ | kon ([2]; bootstrap evaluation, median, fixed): 560600 M⁻¹ s⁻¹ | Kd ([2]; final population model, read-out: estimated kD of final model (koff/kon)): 4 µM | Vd ([2]; male, human, erythrocytes, oral, population estimate of final model, read-out: Very, cell (erythrocyte compartment) volume of distribution): 3.3 L | Vd ([2]; male, human, plasma, oral, population estimate of final model, read-out: Vc, central volume of distribution): 64.8 L | clearance ([2]; male, human, plasma, oral, bootstrap evaluation, median of 2000 replicates, read-out: CLplasma (converted)): 166 mL/min | kon, association constant ([2]; not estimated but fixed in the in vivo model to the in vitro value at 37°C): 560600 M⁻¹ s⁻¹ | Btot, maximal binding capacity [2, 5]: 111 mg | QRen, fraction eliminated by renal route [2, 5]: 28.8% | Very, cell (erythrocyte compartment) volume of distribution [2, 5]: 3.27 L | ka, constant of absorption [2, 5]: 1.88 h⁻¹ | koff, dissociation constant [2, 5]: 2.244 s⁻¹ | CLplasma, apparent plasma clearance (CL/F) ([2]; population estimate of final model, oral 50, 100, 200 mg): 10.0 L/h and 9.95 L/h | koff (erythrocytes; [6]): 0.0486 s⁻¹ | kon (erythrocytes; [6]): 560600 M⁻¹ s⁻¹ | erythrocyte/plasma ratio (erythrocytes; concentrations of 10 mg/L or less): 800 | erythrocyte/plasma ratio (erythrocytes; concentrations of 20 mg/L and above): less than 30 | efflux from incubated erythrocytes into blank plasma (erythrocytes; erythrocytes incubated 1 h at 10 and 40 mg/L, 37°C, data not shown): only minute amounts | in vitro binding capacity (erythrocytes; in vitro evaluation): exceeding 20 mg per liter of whole blood | whole blood concentration at which saturation of erythrocytes occurs (erythrocytes; in vitro spiking): ~20 mg/L | time to steady state of erythrocyte/plasma ratio (erythrocytes; spiked fresh human whole blood): about 10 minutes | Plasma‐free fraction [3]: 71%
